# Data from US20260216180A1, “QUINOLINE DERIVATIVE COMPOUNDS OR PHARMACEUTICALLY ACCEPTABLE SALT THEREOF, PREPARATION METHOD THEREFOR AND USE THEREOF” (JIANGSU CAREPHAR PHARMACEUTICAL CO.,LTD., priority 2023, published 2026).
# Read-outs that look alike come from different tables or passages of the source.
# Experiments:
# TNF-α = experiment: Macrophage TNF-α secretion after LPS (ELISA); format: cell-based; conditions: Bone marrow macrophage, compared to 0 μM, mouse bone marrow macrophages, 200 ng/ml LPS, 6 hours, read-out: Inhibition rate of TNFα at 10 μM concentration
# Protocol: Pharmacological Activity Test: Regulatory Effect of Quinoline Derivatives on Macrophage IL-6 and TNF-α Secretion
# Mouse bone marrow cells were isolated from the femur and tibia bone marrow of […] mice of 6-8 week old raised under SPF conditions and inoculated in 6-well plates at a density of 1.5*10^6 cells/well/2 mL. 50 ng/mL M-CSF was added to each well and the cells were cultured in a CO2 incubator for 3 days. On the third day, the culture medium was replaced with fresh medium containing 100 ng/mL M-CSF and the culture was continued for 3 days. On the 6th day, the supernatant was removed and the cells were washed once with DPBS. After adding 1 mL of DPBS, the macrophages were harvested using a cell scraper, centrifuged at 400 g for 10 min, and the supernatant was discarded. The cells were resuspended in fresh culture medium containing 50 ng/mL M-CSF, inoculated in a 96-well plate at a density of 2*10^4 cells/well/200 μL, and cultured in a CO2 incubator overnight. 0, 3, 5, […] of the test compound were added to each well (wherein well 0 contains 0.1% DMSO) respectively and incubate in a CO2 incubator for 1 hour. Then 200 ng/ml LPS was added and the cell supernatant was collected after 6 hours of co-culture. ELISA kits were used to detect the secretion levels of IL-6 and TNF-α.
# CYP1A2 = target: T1, CYP1A2 (Homo sapiens, UniProt P05177); experiment: CYP enzyme inhibition, human liver microsomes, CYP1A2; format: in vitro ADME; conditions: probe substrate Phenacetin; for IC50: read-out: IC50 CYP 1A2
# T1 construct: Commercially available mixed human liver microsomes were used; from tissue; host or cells: pooled human liver microsomes
# T1 sequence (P05177 1-516): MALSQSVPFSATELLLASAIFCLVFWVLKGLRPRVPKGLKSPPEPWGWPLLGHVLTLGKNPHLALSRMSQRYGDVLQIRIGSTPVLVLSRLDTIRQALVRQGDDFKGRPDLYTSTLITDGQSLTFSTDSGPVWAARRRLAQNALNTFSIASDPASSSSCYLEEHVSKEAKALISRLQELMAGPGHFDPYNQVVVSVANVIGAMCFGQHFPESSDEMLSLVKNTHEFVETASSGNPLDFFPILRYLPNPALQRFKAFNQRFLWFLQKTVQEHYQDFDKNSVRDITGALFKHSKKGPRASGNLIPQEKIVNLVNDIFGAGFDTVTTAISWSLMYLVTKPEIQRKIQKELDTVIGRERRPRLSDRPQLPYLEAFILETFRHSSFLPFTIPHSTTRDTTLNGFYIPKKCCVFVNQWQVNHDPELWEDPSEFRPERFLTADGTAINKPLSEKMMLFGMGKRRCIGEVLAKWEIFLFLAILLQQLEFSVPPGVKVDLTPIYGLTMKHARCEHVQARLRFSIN
# Protocol: (§1) Commercially available mixed human liver microsomes were used, with the liver microsome concentrations of diclofenac, dextromethorphan, and midazolam being 0.1 mg/mL; and the liver microsome concentrations of phenacetin, bupropion, amodiaquine, mephenytoin, and testosterone being 0.2 mg/mL. Probe substrate, specific inhibitor and test compound (ABX464, compound 18) were diluted to the corresponding concentration of working solution for use. A mixed solution containing liver microsomes, MgCl2, substrate, […] inhibitor, and the test compound was prepared. After the incubation, 600 μL of ice-cold ACN working solution containing IS was added to terminate the reaction, and the mixture was centrifuged and used for LC-MS/MS detection. [table] At different concentrations of the test compound or positive inhibitor, the percentage of remaining activity is determined by the ratio of the amount of characteristic metabolites of the probe substrate generated to the corresponding amount generated in the absence of the test compound or positive inhibitor. If a significant decrease in the amount of metabolite production is found at the highest concentration setting point, the half inhibitory concentration (IC50) will be calculated using the log(inhibitor) vs. response—Variable slope formula of GraphPad Prism software: Y=Bottom+(Top−Bottom)/(1+10^((Log IC50−X)*Hillslope)) • X: Log (test compound or positive inhibitor concentration); • Y: Remaining activity percentage; • Top and Bottom: refer to the theoretical maximum and minimum remaining activity percentages respectively; and • Hillslope: slope coefficient or slope. If there is no significant decrease in metabolite production at the highest concentration setting point (percentage of enzyme remaining activity […]), the half inhibitory concentration (IC50) cannot be accurately calculated, and the reported IC50 is greater than the highest concentration tested.
# CYP2B6 = target: T2, CYP2B6 (Homo sapiens, UniProt P20813); experiment: CYP enzyme inhibition, human liver microsomes, CYP2B6; format: in vitro ADME; conditions: probe substrate Bupropion, read-out: IC50 CYP 2B6
# T2 construct: Commercially available mixed human liver microsomes were used; from tissue; host or cells: pooled human liver microsomes
# T2 sequence (P20813 1-491): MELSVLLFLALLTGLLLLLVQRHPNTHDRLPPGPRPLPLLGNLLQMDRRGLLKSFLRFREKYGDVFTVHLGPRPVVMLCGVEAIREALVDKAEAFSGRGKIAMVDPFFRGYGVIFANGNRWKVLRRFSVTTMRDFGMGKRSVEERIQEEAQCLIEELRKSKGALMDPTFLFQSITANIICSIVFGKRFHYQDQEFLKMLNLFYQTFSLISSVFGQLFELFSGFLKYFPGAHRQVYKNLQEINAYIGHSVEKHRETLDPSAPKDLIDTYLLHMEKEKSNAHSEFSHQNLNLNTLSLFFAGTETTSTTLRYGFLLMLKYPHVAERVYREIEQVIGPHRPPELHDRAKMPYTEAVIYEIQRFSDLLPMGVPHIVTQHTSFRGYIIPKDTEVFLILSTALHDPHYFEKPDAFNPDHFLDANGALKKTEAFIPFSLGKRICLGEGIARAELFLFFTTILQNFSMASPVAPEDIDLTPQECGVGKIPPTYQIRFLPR
# Protocol: (§2) Commercially available mixed human liver microsomes were used, with the liver microsome concentrations of diclofenac, dextromethorphan, and midazolam being 0.1 mg/mL; and the liver microsome concentrations of phenacetin, bupropion, amodiaquine, mephenytoin, and testosterone being 0.2 mg/mL. Probe substrate, specific inhibitor and test compound (ABX464, compound 18) were diluted to the corresponding concentration of working solution for use. A mixed solution containing liver microsomes, MgCl2, substrate, […] inhibitor, and the test compound was prepared. After the incubation, 600 μL of ice-cold ACN working solution containing IS was added to terminate the reaction, and the mixture was centrifuged and used for LC-MS/MS detection. [table] At different concentrations of the test compound or positive inhibitor, the percentage of remaining activity is determined by the ratio of the amount of characteristic metabolites of the probe substrate generated to the corresponding amount generated in the absence of the test compound or positive inhibitor. […]
# CYP2C9 = target: T3, CYP2C9 (Homo sapiens, UniProt P11712); experiment: CYP enzyme inhibition, human liver microsomes, CYP2C9; format: in vitro ADME; conditions: probe substrate Diclofenac, read-out: IC50 CYP 2C9
# T3 construct: Commercially available mixed human liver microsomes were used; from tissue; host or cells: pooled human liver microsomes
# Protocol: as §2
# CYP2C19 = target: T4, CYP2C19 (Homo sapiens, UniProt P33261); experiment: CYP enzyme inhibition, human liver microsomes, CYP2C19; format: in vitro ADME; conditions: probe substrate S-Mephenytoin, read-out: IC50 CYP 2C19
# T4 construct: Commercially available mixed human liver microsomes were used; from tissue; host or cells: pooled human liver microsomes
# Protocol: as §2
# CYP2D6 = target: T5, CYP2D6 (Homo sapiens, UniProt P10635); experiment: CYP enzyme inhibition, human liver microsomes, CYP2D6; format: in vitro ADME; conditions: probe substrate Dextromethorphan, read-out: IC50 CYP 2D6
# T5 construct: Commercially available mixed human liver microsomes were used; from tissue; host or cells: pooled human liver microsomes
# Protocol: as §2
# CYP3A4 = target: T6, CYP3A4 (Homo sapiens, UniProt P08684); experiment: CYP enzyme inhibition, human liver microsomes, CYP3A4; format: in vitro ADME
# T6 construct: Commercially available mixed human liver microsomes were used; from tissue; host or cells: pooled human liver microsomes
# Protocol: as §1
# [1] = probe substrate Midazolam, read-out: IC50 CYP 3A4-Midazolam
# [2] = probe substrate Testosterone, read-out: IC50 CYP 3A4-Testosterone
# T6 sequence (P08684 whole entry): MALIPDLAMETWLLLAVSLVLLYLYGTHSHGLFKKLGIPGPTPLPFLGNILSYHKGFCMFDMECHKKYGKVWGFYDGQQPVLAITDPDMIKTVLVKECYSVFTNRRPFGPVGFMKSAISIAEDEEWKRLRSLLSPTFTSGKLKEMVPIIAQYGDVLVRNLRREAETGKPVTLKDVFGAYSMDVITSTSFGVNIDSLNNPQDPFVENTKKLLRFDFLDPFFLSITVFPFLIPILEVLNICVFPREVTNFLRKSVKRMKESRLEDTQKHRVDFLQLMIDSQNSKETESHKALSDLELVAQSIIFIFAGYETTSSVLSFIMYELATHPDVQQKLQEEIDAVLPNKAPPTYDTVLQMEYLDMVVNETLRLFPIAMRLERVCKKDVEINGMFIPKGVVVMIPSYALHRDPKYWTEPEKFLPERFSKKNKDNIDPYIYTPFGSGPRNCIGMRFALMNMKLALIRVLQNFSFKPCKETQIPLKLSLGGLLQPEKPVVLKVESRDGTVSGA
# T3 sequence (P11712 whole entry): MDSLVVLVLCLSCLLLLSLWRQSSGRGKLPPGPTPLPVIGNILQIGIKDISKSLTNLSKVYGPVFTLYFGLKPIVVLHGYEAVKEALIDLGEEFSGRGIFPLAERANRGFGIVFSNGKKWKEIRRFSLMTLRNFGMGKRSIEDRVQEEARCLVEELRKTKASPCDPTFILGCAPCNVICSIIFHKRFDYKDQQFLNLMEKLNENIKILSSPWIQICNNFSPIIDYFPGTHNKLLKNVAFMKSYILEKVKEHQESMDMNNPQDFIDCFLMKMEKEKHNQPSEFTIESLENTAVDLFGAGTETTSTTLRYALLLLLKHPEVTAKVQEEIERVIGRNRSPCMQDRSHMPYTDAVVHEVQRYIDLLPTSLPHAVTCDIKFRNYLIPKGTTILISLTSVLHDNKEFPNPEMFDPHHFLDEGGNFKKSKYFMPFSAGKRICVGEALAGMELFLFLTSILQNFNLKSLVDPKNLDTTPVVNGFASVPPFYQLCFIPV
# T5 sequence (P10635 whole entry): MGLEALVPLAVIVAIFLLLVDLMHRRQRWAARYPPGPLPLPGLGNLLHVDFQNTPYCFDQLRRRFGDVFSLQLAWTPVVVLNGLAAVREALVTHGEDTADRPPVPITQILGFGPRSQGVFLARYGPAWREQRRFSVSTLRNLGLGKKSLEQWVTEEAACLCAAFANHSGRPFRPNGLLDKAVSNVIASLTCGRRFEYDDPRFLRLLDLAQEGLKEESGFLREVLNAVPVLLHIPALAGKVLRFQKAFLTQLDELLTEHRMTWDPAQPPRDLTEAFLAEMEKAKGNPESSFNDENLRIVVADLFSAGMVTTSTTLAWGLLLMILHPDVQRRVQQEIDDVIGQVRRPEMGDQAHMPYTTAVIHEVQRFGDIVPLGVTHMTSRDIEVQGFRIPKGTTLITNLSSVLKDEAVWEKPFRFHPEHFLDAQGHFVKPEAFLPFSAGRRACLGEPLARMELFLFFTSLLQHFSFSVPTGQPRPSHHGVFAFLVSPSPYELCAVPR
# T4 sequence (P33261 whole entry): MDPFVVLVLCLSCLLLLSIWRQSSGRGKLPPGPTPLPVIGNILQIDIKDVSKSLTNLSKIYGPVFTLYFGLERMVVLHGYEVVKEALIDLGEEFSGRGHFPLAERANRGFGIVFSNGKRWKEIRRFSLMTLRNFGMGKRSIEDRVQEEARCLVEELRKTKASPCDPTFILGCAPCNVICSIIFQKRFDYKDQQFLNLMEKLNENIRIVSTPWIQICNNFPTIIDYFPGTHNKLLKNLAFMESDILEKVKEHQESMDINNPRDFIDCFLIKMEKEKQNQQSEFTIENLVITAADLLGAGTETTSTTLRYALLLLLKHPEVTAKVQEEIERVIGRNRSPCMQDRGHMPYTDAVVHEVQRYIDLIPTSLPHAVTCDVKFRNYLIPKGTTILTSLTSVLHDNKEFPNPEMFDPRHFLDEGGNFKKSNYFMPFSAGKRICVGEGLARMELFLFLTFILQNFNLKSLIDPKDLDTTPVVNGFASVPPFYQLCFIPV
SMILES,inhibition at 10 µM (TNF-α),IC50 (CYP1A2),IC50 (CYP2B6),IC50 (CYP2C9),IC50 (CYP2C19),IC50 (CYP2D6),IC50 (CYP3A4; [1]),IC50 (CYP3A4; [2]),IC50 CYP 1A2 (CYP1A2)
"FC(F)(F)Oc1ccc(Nc2ccc3cccc(Cl)c3n2)cc1 [ABX464, reference compound]",80%,0.097 µM,86.7 µM,15.1 µM,4.92 µM,17.2 µM,73 µM,> 100 µM,
"Fc1cc(Cl)c2nc(Nc3ccc(C4(C(F)(F)F)CC4)cc3)ccc2c1 [Compound 18, 8-chloro-6-fluoro-N-(4-(1-(trifluoromethyl)cyclopropyl)phenyl)quinolin-2-amine]",94%,21.6 µM,> 100 µM,20.2 µM,5.69 µM,48 µM,> 100 µM,> 100 µM,significantly superior to ABX464
